Our source for the kinact/KI values is US20250241926A1, “HETEROCYCLIC COMPOUNDS FOR USE IN THE TREATMENT OF CANCER” (ARTIOS PHARMA LIMITED, priority 2021, published 2025).

In this assay the target is T1, Human Polθ polymerase domain (aa1820-2590) (Homo sapiens, UniProt O75417).
T1 construct: Human Polθ polymerase domain (aa1820-2590) was expressed in E. Coli; made in house; host or cells: E. coli
T1 sequence (O75417 1820-2590): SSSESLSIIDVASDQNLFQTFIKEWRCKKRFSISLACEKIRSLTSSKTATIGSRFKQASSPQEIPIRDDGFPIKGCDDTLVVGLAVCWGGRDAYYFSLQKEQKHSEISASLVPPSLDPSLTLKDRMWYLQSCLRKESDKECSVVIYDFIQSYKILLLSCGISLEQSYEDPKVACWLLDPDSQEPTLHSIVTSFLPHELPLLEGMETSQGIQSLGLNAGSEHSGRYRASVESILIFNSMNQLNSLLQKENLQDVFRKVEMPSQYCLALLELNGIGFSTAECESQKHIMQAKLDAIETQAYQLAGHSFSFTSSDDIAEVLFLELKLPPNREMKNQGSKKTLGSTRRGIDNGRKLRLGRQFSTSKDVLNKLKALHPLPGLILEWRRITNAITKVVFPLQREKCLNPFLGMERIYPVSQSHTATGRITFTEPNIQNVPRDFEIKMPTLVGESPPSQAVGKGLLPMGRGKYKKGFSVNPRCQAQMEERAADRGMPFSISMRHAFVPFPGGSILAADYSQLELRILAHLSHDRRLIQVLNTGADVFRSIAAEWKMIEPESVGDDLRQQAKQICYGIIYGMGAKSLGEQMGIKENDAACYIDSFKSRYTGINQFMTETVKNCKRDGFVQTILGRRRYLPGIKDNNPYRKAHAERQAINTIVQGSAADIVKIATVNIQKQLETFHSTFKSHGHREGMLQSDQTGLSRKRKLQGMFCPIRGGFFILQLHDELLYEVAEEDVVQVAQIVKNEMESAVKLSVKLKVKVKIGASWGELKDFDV
Nature of the assay: Polθ Polymerase Domain Kinact/Kl Assay (PicoGreen). It is filed as biochemical. Particulars: covalent inhibitors, kobs vs [I] fit, 0.8 nM Polθ, 100 nM DNA substrate, read-out: Kinact/KI. On the procedure: Polθ Polymerase Domain Kinact/Kl Assay
A PicoGreen assay was used to measure the Kinact and Kl values of covalent compounds that inhibit the activity of Polθ in vitro.
Human Polθ polymerase domain (aa1820-2590) was expressed in E. Coli, purified, aliquoted and stored at −80° C. until required. Polθ substrate was generated from a 1.2:1 mix of DNA II Short to DNA II Long to give a final concentration of […] substrate in annealing buffer (20 mM Tris pH 7.5, 50 mM NaCl). The substrate was heated in 50 mL aliquots to 95° C. in a heating block for 5 min before the heating block switched off, the reaction left to cool to rt and stored at −20° C. until required.
Assay measurements were performed with 1× buffer comprising 25 mM Tris pH 7.5, 12.5 mM NaCl, […], 5% (v/v) glycerol, 0.01% v/v Triton x-100, 0.1 mg/ml BSA, 1 mM DTT. Test compounds were prepared by dilution in 100% DMSO to give a 12 μM intermediate stock of each (100× final top concentration). 100 nL of 23× 1:1.5-fold serial dilutions and a DMSO only control were dispensed using the Tecan dispenser into Greiner 384 well black low volume plates (product code 784076). DMSO concentration was maintained at 1% of the final assay volume by back filling with DMSO.
2× Working stock of substrate (200 nM of DNA substrate and […] dNTPs) and enzyme (1.4 nM Polθ) were made up in assay buffer. 5 μL/well of both enzyme and substrate 2× solutions were dispensed using a Tempest dispenser (Formulatrix) into assay plates that had been pre-dispensed with compound to give a final assay concentration of 100 nM DNA substrate, […] dNTPs and 0.8 nM Polθ. To stop the reaction, […] of a solution containing 25 mM Tris-HCl pH 7.5 and 20 mM EDTA was added at […] (t=0, 2.5, 5, 7.5, 10, 12.5, 15, 20, 25, 30, 35, 40, 45, 50, 55 and 60 min) using the Tempest's time delay function. The plates were covered during the time course to prevent evaporation. After completing the assay, 5 μL of detection reagent (25 mM Tris-HCl pH 7.5 and 2.5% (v/v) PicoGreen) was dispensed into the wells using a Tempest liquid handler (Formulatrix) and plates subsequently read on the CLARIOstar Plus (BMG Labtech) using the default optical settings for fluorescein and the auto gain/focus settings.
All data analysis was carried out using GraphPad Prism V. 8 (GraphPad Software Inc, San Diego, CA) Time course data for each inhibitor concentration was fitted to equation 1 to determine kobs values.^1 Any time points where the control (DMSO alone) reaction was no longer linear were excluded from the analysis.
A secondary plot of kobs vs [I] is used to determine the Kinact and Kl parameters (for a 2-step covalent inhibitor) by fitting to equation 2.1
[formula] • 1) Evaluation of Enzyme Inhibitors in Drug Discovery (Ch9), R. A Copeland, Wiley, 2nd Edition 2013.

For `C=CC(=O)N1CC(N2CC(=O)N(C)C(CN3CC[C@H](Nc4nc(C)cc(C(F)(F)F)c4C#N)C(=O)N(C)c4cccc(F)c43)C2)C1` (single isomer, unassigned) [Example 58B], the kinact/KI came out at 40000 M⁻¹ s⁻¹.
`C=CC(=O)N1CC(O[C@@H]2CN(CCN3CC[C@H](Nc4nc(C)cc(C(F)(F)F)c4C#N)C(=O)N(C)c4cccc(F)c43)C[C@H]2O)C1` (single isomer, unassigned) [Example 65B]: the kinact/KI came to 550000 M⁻¹ s⁻¹.
As to `C=CC(=O)N1CCN2CCN(CCN3CC[C@H](Nc4nc(C)cc(C(F)(F)F)c4C#N)C(=O)N(C)c4cccc(F)c43)CC2C1` (single isomer, unassigned) [Example 72A], the kinact/KI came to 180000 M⁻¹ s⁻¹.
As to `Cc1cc(C(F)(F)F)c(C#N)c(N[C@H]2CCN(CCN3CCOC4(C3)CN(C(=O)/C=C/CN(C)C)C4)c3c(F)cccc3N(C)C2=O)n1` [Example 1, (S,E)-2-((6-(2-(2-(4-(Dimethylamino)but-2-enoyl)-5-oxa-2,8-diazaspiro[3.5]nonan-8-yl)ethyl)-7-fluoro-1-methyl-2-oxo-1,2,3,4,5,6-hexahydrobenzo[b][1,4]diazocin-3-yl)amino)-6-methyl-4-(trifluoromethyl)nicotinonitrile], the kinact/KI is 3.1e+06 M⁻¹ s⁻¹.
For the compound `Cc1cc(C(F)(F)F)c(C#N)c(N[C@H]2CCN(CCN3CCOC4(CCN(C(=O)/C=C/CN(C)C)C4)C3)c3c(F)cccc3N(C)C2=O)n1` (stereo partly drawn) [Example 2, 2-(((S)-6-(2-(2-((E)-4-(Dimethylamino)but-2-enoyl)-6-oxa-2,9-diazaspiro[4.5]decan-9-yl)ethyl)-7-fluoro-1-methyl-2-oxo-1,2,3,4,5,6-hexahydrobenzo[b][1,4]diazocin-3-yl)amino)-6-methyl-4-(trifluoromethyl)nicotinonitrile], the kinact/KI was found to be 510000 M⁻¹ s⁻¹.
As for `Cc1cc(C(F)(F)F)c(C#N)c(N[C@H]2CCN(CCN3CCOC4(C3)CN(C(=O)/C=C/CN(C)C)C4)c3ccccc3N(C)C2=O)n1` [Example 3, (S,E)-2-((6-(2-(2-(4-(Dimethylamino)but-2-enoyl)-5-oxa-2,8-diazaspiro[3.5]nonan-8-yl)ethyl)-1-methyl-2-oxo-1,2,3,4,5,6-hexahydrobenzo[b][1,4]diazocin-3-yl)amino)-6-methyl-4-(trifluoromethyl)nicotinonitrile], the kinact/KI is 1.1e+06 M⁻¹ s⁻¹.
Regarding `Cc1cc(C(F)(F)F)c(C#N)c(N[C@H]2CCN(CCN3CC4(C3)CN(C(=O)/C=C/CN(C)C)C4)c3ccccc3N(C)C2=O)n1` [Example 4, (S,E)-2-((6-(2-(6-(4-(Dimethylamino)but-2-enoyl)-2,6-diazaspiro[3.3]heptan-2-yl)ethyl)-1-methyl-2-oxo-1,2,3,4,5,6-hexahydrobenzo[b][1,4]diazocin-3-yl)amino)-6-methyl-4-(trifluoromethyl)nicotinonitrile], the kinact/KI is 300000 M⁻¹ s⁻¹.
As for `Cc1cc(C(F)(F)F)c(C#N)c(N[C@H]2CCN(CCN3CCN(C(=O)/C=C/CN(C)C)CC3)c3ccccc3N(C)C2=O)n1` [Example 5, (S,E)-2-((6-(2-(4-(4-(Dimethylamino)but-2-enoyl)piperazin-1-yl)ethyl)-1-methyl-2-oxo-1,2,3,4,5,6-hexahydrobenzo[b][1,4]diazocin-3-yl)amino)-6-methyl-4-(trifluoromethyl)nicotinonitrile], the figure is 110000 M⁻¹ s⁻¹; as for `C=CC(=O)N1CC2(CN(CCN3CC[C@H](Nc4nc(C)cc(C(F)(F)F)c4C#N)C(=O)N(C)c4cccc(F)c43)CCN2C)C1` [Example 6, (S)-2-((6-(2-(2-Acryloyl-5-methyl-2,5,8-triazaspiro[3.5]nonan-8-yl)ethyl)-7-fluoro-1-methyl-2-oxo-1,2,3,4,5,6-hexahydrobenzo[b][1,4]diazocin-3-yl)amino)-6-methyl-4-(trifluoromethyl)nicotinonitrile], 980000 M⁻¹ s⁻¹.
